# Measured values reported in ChEMBL document CHEMBL5338707, “Design, synthesis and bioactivity evaluation of favorable evodiamine derivative scaffold for developing cancer therapy” (Eur J Med Chem, 2022).
# The source made the active and inactive calls. The calls are words filed in the database; no cut-off is given here.
# What was measured:
# SGC-7901 [1] = test: Antiproliferative activity against human SGC-7901 cells assessed as inhibition of colony formation at >= 16 nM incubated for 1 to 2 weeks by crystal violet staining based analysis; format: functional, cell-based; conditions: time 1-2 weeks
# [2] = molecular target: DNA topoisomerase II (Homo sapiens) (UniProt P11388+Q02880); test: Inhibition of Topoisomerase 2 (unknown origin) at 50 to 100 uM incubated for 15 mins in the presence of ATP by electrophoretic analysis; format: protein assay; conditions: dose 50-100 µM
# SGC-7901 [3] = test: Induction of apoptosis in human SGC-7901 cells assessed as necrotic cells at 96 nM incubated for 24 hrs by AnnexinV-FITC/PI staining based flow cytometric analysis (reference value: 0.63%); format: functional
# MGC-803 [4] = test: Induction of apoptosis in human MGC-803 cells assessed as viable cells at 96 nM incubated for 24 hrs by AnnexinV-FITC/PI staining based flow cytometric analysis (reference value: 98.59%); format: functional; conditions: read-out: Activity
# MGC-803 [5] = test: Induction of apoptosis in human MGC-803 cells assessed as necrotic cells at 96 nM incubated for 24 hrs by AnnexinV-FITC/PI staining based flow cytometric analysis (reference value: 0.53%); format: functional
# MGC-803 [6] = test: Cell cycle arrest in human MGC-803 cells assessed as accumulation of cells at G2/M phase at 3 nM incubated for 24 hrs by PI staining based flow cytometric analysis (Rvb =15.42%); format: functional
# MGC-803 [7] = test: Antiproliferative activity against human MGC-803 cells assessed as inhibition of colony formation at >= 16 nM incubated for 1 to 2 weeks by crystal violet staining based analysis; format: functional, cell-based; conditions: time 1-2 weeks
# SGC-7901 [8] = test: Antimigratory activity against human SGC-7901 cells assessed as reduction in migration ability at 3 to 48 nM incubated for 24 hrs by transwell migration assay; format: functional, cell-based; conditions: dose 3-48 nM
# [9] = Acute toxicity in Kunming mouse assessed as animal death at 300 mg/kg, ip administered for 14 days; format: organism-based; conditions: in vivo, 336 h, time 14 day
# [10] = Acute toxicity in Kunming mouse assessed as effect on heart at 300 mg/kg, ip administered for 14 days by H&E staining based analysis; format: organism-based; conditions: in vivo, 336 h, time 14 day
# [11] = Acute toxicity in Kunming mouse assessed as effect on liver at 300 mg/kg, ip administered for 14 days by H&E staining based analysis; format: organism-based; conditions: in vivo, 336 h, time 14 day
# [12] = Acute toxicity in Kunming mouse assessed as effect on spleen at 300 mg/kg, ip administered for 14 days by H&E staining based analysis; format: organism-based; conditions: in vivo, 336 h, time 14 day
# [13] = Acute toxicity in Kunming mouse assessed as effect on lung at 300 mg/kg, ip administered for 14 days by H&E staining based analysis; format: organism-based; conditions: in vivo, 336 h, time 14 day
# [14] = Acute toxicity in Kunming mouse assessed as effect on kidney at 300 mg/kg, ip administered for 14 days by H&E staining based analysis; format: organism-based; conditions: in vivo, 336 h, time 14 day
# MGC-803 [15] = test: Antitumor activity against human MGC-803 cells xenografted in BALB/C mouse assessed as tumor growth inhibition at 35 mg/kg, ip administered once a day for 17 days relative to control; format: functional; conditions: MGC-803, 408 h, time 17 day, read-out: TGI
# [16] = Toxicity in BALB/C mouse xenografted with human MGC-803 cells assessed as decrease in body weight at 35 mg/kg, ip administered once daily for 17 days; format: organism-based; conditions: in vivo, 408 h, time 17 day
Compound,Activity (SGC-7901 [1]),inhibition [2],Activity (SGC-7901 [3]) [%],viability at 0.096 µM (MGC-803 [4]) [%],Activity (MGC-803 [5]) [%],Activity (MGC-803 [6]) [%],Activity (MGC-803 [7]),Activity (SGC-7901 [8]),Activity [9],Activity [10],Activity [11],Activity [12],Activity [13],Activity [14],inhibition in vivo at 35 mg/kg (MGC-803 [15]) [%],Activity [16]
O=C1c2cc(F)ccc2N(c2cccc(F)c2)C2c3[nH]c4ccc(O)cc4c3CCN12 (configuration not stated),Active,Active,2.55,74.4,3.48,15.36,Active,Active,,,,,,,,
CC(=O)Oc1ccc2[nH]c3c(c2c1)CCN1C(=O)c2cc(F)ccc2N(c2cccc(F)c2)C31 (configuration not stated),,Active,1.33,60,1.81,13.29,,Active,Non-Toxic,Non-Toxic,Non-Toxic,Non-Toxic,Non-Toxic,Non-Toxic,36.4,Non-Toxic
